For experiment [1], the system named is R1 ES cells. Briefly: R1 ES cells without LIF and MEF feeder. Format: cell-based, mouse. On the procedure: R1 ES Cells. R1 Cells were maintained on MEF feeder in ES-IMDM media supplemented with 15% ES-cell quality serum, 10^5 U/100 ml of LIF. Cells were grown for 3-5 days with change of medium every day. For inducing differentiation in monolayer culture and to determine the effect of Gö6983, cells were cultured at feeder-free condition and without LIF for 7 days.

Experiment [2] deals with T1, PKC ζ (Mus musculus, UniProt Q02956).
T1 construct: endogenous in cells; host or cells: mouse ES cells (E14)
T1 sequence (Q02956 whole entry): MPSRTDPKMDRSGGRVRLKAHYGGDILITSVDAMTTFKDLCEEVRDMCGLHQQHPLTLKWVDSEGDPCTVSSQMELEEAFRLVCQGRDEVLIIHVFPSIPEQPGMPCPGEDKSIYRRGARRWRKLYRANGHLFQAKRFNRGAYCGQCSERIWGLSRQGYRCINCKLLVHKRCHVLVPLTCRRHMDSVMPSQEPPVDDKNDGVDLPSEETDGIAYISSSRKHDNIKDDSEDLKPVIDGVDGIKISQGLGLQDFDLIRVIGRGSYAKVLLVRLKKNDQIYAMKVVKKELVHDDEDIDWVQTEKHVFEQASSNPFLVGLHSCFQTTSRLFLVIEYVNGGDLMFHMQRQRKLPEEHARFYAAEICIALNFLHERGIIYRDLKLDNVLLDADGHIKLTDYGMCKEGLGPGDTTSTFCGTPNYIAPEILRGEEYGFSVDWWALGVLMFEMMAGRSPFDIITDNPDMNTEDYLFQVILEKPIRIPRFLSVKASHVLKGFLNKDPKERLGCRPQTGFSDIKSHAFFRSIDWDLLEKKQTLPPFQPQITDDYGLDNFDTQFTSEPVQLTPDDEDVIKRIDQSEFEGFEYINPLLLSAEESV
Kind of experiment: Western blot analysis of p-PKC ζ in ES cells. Format: cell-based. On the procedure: Western Blot Analysis. Whole cell lysates were prepared in SDS-gel loading buffer and resolved by 10% PAGE. The antibodies used for this study included β-actin Clone AC-15 from Sigma; p-STAT3 (Tyr705), p-p44/42 MAPK (tyr202/tyr204), p44/42 MAPK, GSK3β, Phospho Akt (Ser473), Akt, p-NFκβ p65 (Ser536), c-Myc, p-c-Myc (Thr58/Ser62), p-p90RSK (Thr359/Ser363), RSK1, Suz12 (D39F6), and Ezh2 (AC22) from Cell Signaling Technology; STAT3 (C-20), Oct-4 (C-10), Nanog (M-149), PKC α (C-20), PKC βI (C-16), PKC βII (C-18), PKC γ (C-19), PKC δ (C-20), PKC ζ (c-20), p-PKC ζ (Thr 410)-R, p-NFκβ p65 (ser311), and RelA (p65) from Santa Cruz Biotechnology; p-LGL1/LGL2 (S650/S654), SSEA4and H3K4Me3 from Abcam; LGL2 (M06), clone 4G2 from Abnova; β-Catenin from BD Transduction Laboratories, and H3K27Me3 and H3K9Me3 from Millipore.

The subject of experiment [3] is STAT3. Briefly: STAT3 phosphorylation, Western blot. In kind it is cell-based, mouse. The following applies: E14 cells. On the procedure:
E14 ES Cell Cultures. Cells were grown in ES-IMDM media (Lonza, Walkersville, Md.) in a feeder-free condition. ES-IMDM was supplemented with 15% serum, 10^5 U/100 ml of LIF (ESGRO, Millipore, Calif.) and 0.0124% monothioglycerol (MTG; Sigma Aldrich). Cells were grown for 3-5 days with change of medium every day. For inducing differentiation in monolayer culture and to determine the effect of Gö6983 in preventing differentiation, E14 cells were cultured on gelatin-coated plastics for 8 days without LIF. Details of experiments performed at clonal-density are described herein. To maintain E14 cells with Gö6983, serum supplemented ES-IMDM was used in the presence of 5 μM Gö6983 and was passed after every 3-5 days. For all assays involving elucidation of different signaling mechanism responsible for maintenance of pluripotency, cells from a ˜70% confluent ES culture plate were washed two times with 1× phosphate-buffered saline (PBS), trypsinized and plated on a 6-well tissue culture plate and treated with or without LIF or Gö6983 or different inhibitors for ˜10 hours followed by preparation of protein lysates and RNA. The PKCζ knocked-down E14 cells that were generated in this study were maintained in serum supplemented ES-IMDM on gelatin-coated plates in the absence of Gö6983 or LIF or any other inhibitor and passed after 3-5 days. […]
Background: Immunoblotting shows a protein as a band on a membrane.

The subject of experiment [4] is c-Myc. Briefly: GSK-3β-mediated phosphorylation of c-Myc at T58. In kind it is cell-based, mouse. The note with it: Gö6983 alone.
In experiment [5] the test system is human ES cells (H9 cells). Kind of experiment: Human ES cells in feeder-free culture, MEF-conditioned medium. Format: cell-based.
For experiment [6], the system named is Eed−/− ES cells. Briefly: Eed−/− ES cells on collagen IV without LIF.
Source text: Eed^−/− ES Cells. Eed^−/− ES cells, passage 4, were maintained in same medium as mentioned for Ezh2^−/− cells but supplemented with extra LIF (2000 U/ml) to suppress spontaneous differentiation.

Entries after “also recorded” stand apart in the source; their conditions may differ.

As for `COc1ccc2c(c1)c(C1=C(c3c[nH]c4ccccc34)C(=O)NC1=O)cn2CCCN(C)C` [Gö6983, 3-[1-[3-(dimethylamino)propyl]5-methoxy-1H-indol-3-yl]-4-(1H-indol-3-yl)-1H-pyrrole-2,5-dione], in experiment [1], the “maintenance of undifferentiated R1 ES cells” value was “replaced the requirement of LIF and MEF”. Also, the “PKC ζ phosphorylation in ES cells” value in experiment [2] is listed as “almost completely inhibited”. The STAT3 phosphorylation entry in experiment [3] was “did not induce”. Further, the “GSK-3β-mediated phosphorylation of c-Myc at T58 residue” value in experiment [4] is listed as “did not inhibit”. In experiment [5] (MEF-conditioned medium, multiple passages), the “undifferentiated morphology and SSEA4 expression of human ES cells” value is “maintained their undifferentiated morphology and expression of pluripotency marker”. Also, the “SSEA4 expression in H9 colonies” value in experiment [5] (versus TeSR1 medium or conditioned medium with bFGF, FIG. 5) is reported as “sustained high levels of SSEA4 expression; also recorded: comparable”. Further, the “Oct4 protein expression in human ES cells” value in experiment [5] (versus conditioned medium alone) is “High levels of Oct4 protein expression”. Besides, in experiment [6] (collagen IV without LIF), the “colony morphology and pluripotency markers of Eed−/− cells” value was “largely maintained undifferentiated colony morphology and expression of pluripotency markers”. In experiment [6] (in the presence of Gö6983), the “expression of developmental regulator genes in Eed−/− cells” value is listed as “significantly induced”.

The values above are taken from patent US8193235B2, “Compositions and methods for establishing and maintaining stem cells in an undifferentiated state” (University of Kansas, priority 2009, dated 2012).
